According to ChEMBL document CHEMBL2016493, “Design, synthesis, synergistic antimicrobial activity and cytotoxicity of 4-aryl substituted 3,4-dihydropyrimidinones of curcumin” (Bioorg Med Chem Lett, 2012):
The source made the active and inactive calls. The rule behind the calls is not given here.

Columns and labels:
[1] = system: Aspergillus niger; experiment: Antifungal activity against Aspergillus niger MTCC 1108 at 80 uM/ml after 48 hrs by paper disc diffusion method; format: functional; conditions: MTCC 1108, 48 h, read-out: IZ
[2] = system: Burkholderia pseudomallei; experiment: Antibacterial activity against Burkholderia pseudomallei NTCC 10274 at 160 uM/ml after 24 hrs by kirby-bauer method; format: functional; conditions: NTCC 10274, 24 h, read-out: IZ
[3] = system: Salmonella typhimurium; experiment: Antibacterial activity against Salmonella typhimurium ATCC 23564 at 80 uM/ml after 24 hrs by kirby-bauer method; format: functional, Salmonella enterica subsp. enterica serovar Typhimurium; conditions: Salmonella enterica, ATCC 23564, 24 h; read-out: IZ
[4] = system: Escherichia coli; experiment: Antibacterial activity against Escherichia coli ATCC 35218 at 40 uM/ml after 24 hrs by kirby-bauer method; format: functional; conditions: ATCC 35218, 24 h, read-out: IZ
[5] = system: Salmonella typhimurium; experiment: Antibacterial activity against Salmonella typhimurium ATCC 23564 at 40 uM/ml after 24 hrs by kirby-bauer method; format: functional, Salmonella enterica subsp. enterica serovar Typhimurium; conditions: Salmonella enterica, ATCC 23564, 24 h; read-out: IZ
[6] = system: Aspergillus flavus; experiment: Antifungal activity against Aspergillus flavus MTCC 1021 at 160 uM/ml after 48 hrs by paper disc diffusion method; format: functional; conditions: MTCC 1021, 48 h, read-out: IZ
[7] = system: Curvularia lunata; experiment: Antifungal activity against Curvularia lunata MTCC 581 at 160 uM/ml after 48 hrs by paper disc diffusion method; format: functional; conditions: MTCC 581, 48 h, read-out: IZ
[8] = system: Aspergillus flavus; experiment: Antifungal activity against Aspergillus flavus MTCC 1021 at 20 uM/ml after 48 hrs by paper disc diffusion method; format: functional
[9] = system: Aspergillus flavus; experiment: Antifungal activity against Aspergillus flavus MTCC 1021 at 40 uM/ml after 48 hrs by paper disc diffusion method; format: functional
[10] = system: Salmonella typhimurium; experiment: Antibacterial activity against Salmonella typhimurium ATCC 23564 at 160 uM/ml after 24 hrs by kirby-bauer method; format: functional, Salmonella enterica subsp. enterica serovar Typhimurium; conditions: Salmonella enterica, ATCC 23564, 24 h; read-out: IZ
[11] = system: Trichoderma viride; experiment: Antifungal activity against Trichoderma viride MTCC 1107 at 40 uM/ml after 48 hrs by paper disc diffusion method; format: functional; conditions: MTCC 1107, 48 h, read-out: IZ
[12] = system: Curvularia lunata; experiment: Antifungal activity against Curvularia lunata MTCC 581 at 20 uM/ml after 48 hrs by paper disc diffusion method; format: functional; conditions: MTCC 581, 48 h, read-out: IZ
[13] = system: Aspergillus niger; experiment: Antifungal activity against Aspergillus niger MTCC 1108 at 160 uM/ml after 48 hrs by paper disc diffusion method; format: functional; conditions: MTCC 1108, 48 h, read-out: IZ
[14] = system: Escherichia coli; experiment: Antibacterial activity against Escherichia coli ATCC 35218 at 160 uM/ml after 24 hrs by kirby-bauer method; format: functional; conditions: ATCC 35218, 24 h, read-out: IZ
[15] = system: Staphylococcus aureus; experiment: Antibacterial activity against Staphylococcus aureus ATCC 11632 at 40 uM/ml after 24 hrs by kirby-bauer method; format: functional
[16] = system: Staphylococcus aureus; experiment: Antibacterial activity against Staphylococcus aureus ATCC 11632 at 20 uM/ml after 24 hrs by kirby-bauer method; format: functional
[17] = system: Pseudomonas aeruginosa; experiment: Antibacterial activity against Pseudomonas aeruginosa ATCC 15499 at 160 uM/ml after 24 hrs by kirby-bauer method; format: functional
[18] = system: Burkholderia pseudomallei; experiment: Antibacterial activity against Burkholderia pseudomallei NTCC 10274 at 40 uM/ml after 24 hrs by kirby-bauer method; format: functional; conditions: NTCC 10274, 24 h, read-out: IZ
[19] = system: Burkholderia pseudomallei; experiment: Antibacterial activity against Burkholderia pseudomallei NTCC 10274 at 80 uM/ml after 24 hrs by kirby-bauer method; format: functional; conditions: NTCC 10274, 24 h, read-out: IZ
[20] = system: Curvularia lunata; experiment: Antifungal activity against Curvularia lunata MTCC 581 at 80 uM/ml after 48 hrs by paper disc diffusion method; format: functional; conditions: MTCC 581, 48 h, read-out: IZ
[21] = system: Staphylococcus aureus; experiment: Antibacterial activity against Staphylococcus aureus ATCC 11632 at 80 uM/ml after 24 hrs by kirby-bauer method; format: functional; conditions: ATCC 11632, 24 h, read-out: IZ
[22] = system: Aspergillus niger; experiment: Antifungal activity against Aspergillus niger MTCC 1108 at 40 uM/ml after 48 hrs by paper disc diffusion method; format: functional
[23] = system: QG-56; experiment: Cytotoxicity against human QG56 cells after 48 hrs by MTT assay; format: functional, cell-based
[24] = system: Escherichia coli; experiment: Antibacterial activity against Escherichia coli ATCC 35218 at 20 uM/ml after 24 hrs by kirby-bauer method; format: functional
[25] = system: Escherichia coli; experiment: Antibacterial activity against Escherichia coli ATCC 35218 at 80 uM/ml after 24 hrs by kirby-bauer method; format: functional; conditions: ATCC 35218, 24 h, read-out: IZ
[26] = system: Trichoderma viride; experiment: Antifungal activity against Trichoderma viride MTCC 1107 at 160 uM/ml after 48 hrs by paper disc diffusion method; format: functional; conditions: MTCC 1107, 48 h, read-out: IZ
[27] = system: Trichoderma viride; experiment: Antifungal activity against Trichoderma viride MTCC 1107 at 80 uM/ml after 48 hrs by paper disc diffusion method; format: functional; conditions: MTCC 1107, 48 h, read-out: IZ
[28] = system: Aspergillus niger; experiment: Antifungal activity against Aspergillus niger MTCC 1108 at 20 uM/ml after 48 hrs by paper disc diffusion method; format: functional
[29] = system: HCT-116
[30] = system: HepG2
[31] = system: Staphylococcus aureus; experiment: Antibacterial activity against Staphylococcus aureus ATCC 11632 at 160 uM/ml after 24 hrs by kirby-bauer method; format: functional; conditions: ATCC 11632, 24 h, read-out: IZ
[32] = system: Salmonella typhimurium; experiment: Antibacterial activity against Salmonella typhimurium ATCC 23564 at 20 uM/ml after 24 hrs by kirby-bauer method; format: functional, Salmonella enterica subsp. enterica serovar Typhimurium
[33] = system: Aspergillus flavus; experiment: Antifungal activity against Aspergillus flavus MTCC 1021 at 80 uM/ml after 48 hrs by paper disc diffusion method; format: functional
[34] = system: Curvularia lunata; experiment: Antifungal activity against Curvularia lunata MTCC 581 at 40 uM/ml after 48 hrs by paper disc diffusion method; format: functional; conditions: MTCC 581, 48 h, read-out: IZ
[35] = system: Burkholderia pseudomallei; experiment: Antibacterial activity against Burkholderia pseudomallei NTCC 10274 at 20 uM/ml after 24 hrs by kirby-bauer method; format: functional
[36] = system: Trichoderma viride; experiment: Antifungal activity against Trichoderma viride MTCC 1107 at 20 uM/ml after 48 hrs by paper disc diffusion method; format: functional
[37] = system: Pseudomonas aeruginosa; experiment: Antibacterial activity against Pseudomonas aeruginosa ATCC 15499 at 40 uM/ml after 24 hrs by kirby-bauer method; format: functional; conditions: ATCC 15499, 24 h, read-out: IZ
[38] = system: Pseudomonas aeruginosa; experiment: Antibacterial activity against Pseudomonas aeruginosa ATCC 15499 at 80 uM/ml after 24 hrs by kirby-bauer method; format: functional; conditions: ATCC 15499, 24 h, read-out: IZ
[39] = system: Pseudomonas aeruginosa; experiment: Antibacterial activity against Pseudomonas aeruginosa ATCC 15499 at 20 uM/ml after 24 hrs by kirby-bauer method; format: functional

Compound	zone of inhibition at 80 µM [1] [mm]	zone of inhibition at 160 µM [2] [mm]	zone of inhibition at 80 µM [3] [mm]	zone of inhibition at 40 µM [4] [mm]	zone of inhibition at 40 µM [5] [mm]	zone of inhibition at 160 µM [6] [mm]	zone of inhibition at 160 µM [7] [mm]	inhibition zone (IZ) [8]	inhibition zone (IZ) [9]	zone of inhibition at 160 µM [10] [mm]	zone of inhibition [11] [mm]	zone of inhibition at 20 µM [12] [mm]	zone of inhibition at 160 µM [13] [mm]	zone of inhibition at 160 µM [14] [mm]	zone of inhibition at 40 µM [18] [mm]	zone of inhibition at 80 µM [19] [mm]	zone of inhibition at 80 µM [20] [mm]	zone of inhibition at 80 µM [21] [mm]	IC50 [23] [uM/ml]	inhibition zone (IZ) [24]	other results
COc1cc(/C=C/C(=O)C2=C(/C=C/c3ccc(O)c(OC)c3)NC(=S)NC2c2ccc(Cl)cc2)ccc1O (stereo not given)	9	16	19	9	17	9	15	inactive	inactive	22	19	9	11	19	9	12	13	13	100	inactive	zone of inhibition at 40 µM ([15]; ATCC 11632, 24 h, read-out: IZ): 11 mm; zone of inhibition at 20 µM ([16]; ATCC 11632, 24 h, read-out: IZ): 9 mm; inhibition zone (IZ) [17]: inactive; inhibition zone (IZ) [22]: inactive; zone of inhibition at 80 µM [25]: 15 mm; zone of inhibition at 160 µM [26]: 24 mm; zone of inhibition at 80 µM [27]: 22 mm; inhibition zone (IZ) [28]: inactive; IC50 [29]: 50 uM/ml; IC50 [30]: 100 uM/ml; zone of inhibition at 160 µM [31]: 16 mm; zone of inhibition at 20 µM ([32]; Salmonella enterica, ATCC 23564, 24 h, read-out: IZ): 13 mm; inhibition zone (IZ) [33]: inactive; zone of inhibition at 40 µM [34]: 12 mm; inhibition zone (IZ) [35]: inactive; zone of inhibition at 20 µM ([36]; MTCC 1107, 48 h, read-out: IZ): 18 mm
COc1cc(/C=C/C(=O)C2=C(/C=C/c3ccc(O)c(OC)c3)NC(=S)NC2c2ccc(O)c(OC)c2)ccc1O (stereo not given)	12	21	12	9	9	11	24	inactive	inactive	14	9	19	16	14	16	18	22	9	100	inactive	zone of inhibition at 40 µM [37]: 9 mm; zone of inhibition at 80 µM [38]: 11 mm; inhibition zone (IZ) [39]: inactive; inhibition zone (IZ) [15]: inactive; inhibition zone (IZ) [16]: inactive; zone of inhibition at 160 µM ([17]; ATCC 15499, 24 h, read-out: IZ): 14 mm; zone of inhibition at 40 µM ([22]; MTCC 1108, 48 h, read-out: IZ): 11 mm; zone of inhibition at 80 µM [25]: 11 mm; zone of inhibition at 160 µM [26]: 13 mm; zone of inhibition at 80 µM [27]: 11 mm; zone of inhibition at 20 µM ([28]; MTCC 1108, 48 h, read-out: IZ): 9 mm; IC50 [29]: 100 uM/ml; IC50 [30]: 50 uM/ml; zone of inhibition at 160 µM [31]: 11 mm; inhibition zone (IZ) ([32]; Salmonella enterica subsp. enterica serovar Typhimurium): inactive; inhibition zone (IZ) [33]: inactive; zone of inhibition at 40 µM [34]: 21 mm; zone of inhibition at 20 µM ([35]; NTCC 10274, 24 h, read-out: IZ): 13 mm; inhibition zone (IZ) [36]: inactive
